According to patent US20070128217A1 (priority 2003, published 2007):

Legend:
[1] = tested on: control sera (pooled serum of ten healthy LUMC hospital workers; commercial negative donor pooled serum from the Dutch bloodbank); format: binding, human; set-up: Binding of Control serum LUMC to linear peptides / Binding of Control serum Blood-bank to linear peptides / Binding of Control serum LUMC to looped peptides / Binding of Control Serum Blood-Bank to Looped peptides / Binding of Control serum LUMC to linear peptides of the protein M of SARS-CoV Urbani / Binding of Control serum Blood-bank to linear peptides of the protein M of SARS-CoV Urbani / Binding of Control serum LUMC to looped peptides of the protein M of SARS-CoV Urbani / Binding of Control Serum Blood-Bank to Looped peptides of the protein M of SARS-CoV Urbani: unit not given here
[2] = tested on: rabbit serum obtained by immunizing a rabbit with the SARS-CoV strain Frankfurt 1; format: binding; set-up: Binding of a rabbit serum to linear peptides / Binding of a rabbit serum to looped peptides / Rabbit serum linear peptides / Rabbit serum looped peptides / Binding of a rabbit serum to linear peptides of protein N of SARS-CoV Urbani (Rabbit serum linear peptides) / Binding of a rabbit serum to looped/cyclic peptides of protein N of SARS-CoV Urbani (Rabbit serum looped peptides): unit not given here
[3] = tested on: antibodies in sera from SARS patients (sera 1a, 1b, 2, 6, 37, 62, London, SARS-yellow, SARS-green); format: binding, human; set-up: Binding of serum 6 to linear peptides of protein X1 of SARS-CoV Urbani / Binding of serum 37 to linear peptides of protein X1 of SARS-CoV Urbani / Binding of serum 6 to looped/cyclic peptide (PEPSCAN-ELISA) / Binding of serum 37 to looped/cyclic peptide (PEPSCAN-ELISA) / Binding of serum 37 to looped/cyclic peptides of protein X1 of SARS-CoV Urbani / Binding of serum 6 to linear peptides of protein X2 / Binding of serum 37 to linear peptides of protein X2 / Binding of serum 37 to looped/cyclic peptides of protein X2 of SARS-CoV Urbani / Binding of serum 6 to linear peptides of protein M of SARS-CoV Urbani / Binding of serum 37 to linear peptides of protein M of SARS-CoV Urbani / Binding of serum 6 to looped/cyclic peptides of protein M of SARS-CoV Urbani / Binding of serum 37 to looped/cyclic peptides of protein M of SARS-CoV Urbani / Binding of serum 6 to linear peptides of protein X3 of SARS-CoV Urbani / Binding of serum 37 to linear peptides of protein X3 of SARS-CoV Urbani / Binding of serum 37 to looped/cyclic peptides of protein X3 of SARS-CoV Urbani / Binding of serum 6 to linear peptides of protein X4 of SARS-CoV Urbani / Binding of serum 37 to linear peptides of protein X4 of SARS-CoV Urbani / Binding of serum 37 to looped/cyclic peptides of protein X4 of SARS-CoV Urbani / Binding of serum 6 to linear peptides of protein X5 of SARS-CoV Urbani / Binding of serum 37 to linear peptides of protein X5 of SARS-CoV Urbani / Binding of serum 37 to looped/cyclic peptides of protein X5 of SARS-CoV Urbani / Binding of serum 6 to linear peptides of protein N of SARS-CoV Urbani / Binding of serum 37 to linear peptides of protein N of SARS-CoV Urbani / Binding of serum 6 to linear peptide (PEPSCAN-ELISA) / Binding of serum 1a to looped/cyclic peptides of protein N of SARS-CoV Urbani / Binding of serum 1b to looped/cyclic peptides of protein N of SARS-CoV Urbani / Binding of serum 2 to looped/cyclic peptides of protein N of SARS-CoV Urbani / Binding of serum 6 to looped/cyclic peptides of protein N of SARS-CoV Urbani / Binding of serum 37 to looped/cyclic peptides of protein N of SARS-CoV Urbani / Binding of serum 62 to looped/cyclic peptides of protein N of SARS-CoV Urbani / Binding of serum London to looped/cyclic peptides of protein N of SARS-CoV Urbani / Binding of serum SARS-green to looped/cyclic peptides of protein N of SARS-CoV Urbani: unit not given here

GFLFLAWIMLLQFAY
Binding of Control Serum Blood-Bank to Looped peptides of the protein M of SARS-CoV Urbani [1]: 0.6
Binding of Control serum Blood-bank to linear peptides of the protein M of SARS-CoV Urbani [1]: 0.7
Binding of Control serum LUMC to linear peptides of the protein M of SARS-CoV Urbani [1]: 0.3
Binding of Control serum LUMC to looped peptides of the protein M of SARS-CoV Urbani [1]: 0.7
Rabbit serum linear peptides [2]: 0.3
Rabbit serum looped peptides [2]: 0.4
Binding of serum 1a to linear peptides of protein M of SARS-CoV Urbani [3]: 0.7
Binding of serum 1a to looped/cyclic peptides of protein M of SARS-CoV Urbani [3]: 0.6
Binding of serum 1b to linear peptides of protein M of SARS-CoV Urbani [3]: 0.5
Binding of serum 1b to looped/cyclic peptides of protein M of SARS-CoV Urbani [3]: 0.6
Binding of serum 2 to linear peptides of protein M of SARS-CoV Urbani [3]: 0.5
Binding of serum 2 to looped/cyclic peptides of protein M of SARS-CoV Urbani [3]: 0.5
Binding of serum 6 to linear peptides of protein M of SARS-CoV Urbani [3]: 0.3
Binding of serum 6 to looped/cyclic peptides of protein M of SARS-CoV Urbani [3]: 0.6
Binding of serum 37 to linear peptides of protein M of SARS-CoV Urbani [3]: 0.7
Binding of serum 37 to looped/cyclic peptides of protein M of SARS-CoV Urbani [3]: 0.6
Binding of serum 62 to linear peptides of protein M of SARS-CoV Urbani [3]: 0.7
Binding of serum 62 to looped/cyclic peptides of protein M of SARS-CoV Urbani [3]: 0.6
Binding of serum London to linear peptides of protein M of SARS-CoV Urbani [3]: 0.3
Binding of serum London to looped/cyclic peptides of protein M of SARS-CoV Urbani [3]: 0.2
Binding of serum SARS-green to linear peptides of protein M of SARS-CoV Urbani [3]: 0.2
Binding of serum SARS-green to looped/cyclic peptides of protein M of SARS-CoV Urbani [3]: 0.3
Binding of serum SARS-yellow to linear peptides of protein M of SARS-CoV Urbani [3]: 0.0
Binding of serum SARS-yellow to looped/cyclic peptides of protein M of SARS-CoV Urbani [3]: 0.4

GGALIARCWYLHEGH
Binding of Control Serum Blood-Bank to Looped peptides [1]: 0.6
Binding of Control serum Blood-bank to linear peptides [1]: 0.5
Binding of Control serum LUMC to linear peptides [1]: 0.4
Binding of Control serum LUMC to looped peptides [1]: 0.6
Rabbit serum linear peptides [2]: 0.5
Rabbit serum looped peptides [2]: 0.5
Binding of serum 1a to linear peptides of protein X5 of SARS-CoV Urbani [3]: 0.8
Binding of serum 1a to looped/cyclic peptides of protein X5 of SARS-CoV Urbani [3]: 0.7
Binding of serum 1b to linear peptides of protein X5 of SARS-CoV Urbani [3]: 0.7
Binding of serum 1b to looped/cyclic peptides of protein X5 of SARS-CoV Urbani [3]: 0.6
Binding of serum 2 to linear peptides of protein X5 of SARS-CoV Urbani [3]: 0.6
Binding of serum 2 to looped/cyclic peptides of protein X5 of SARS-CoV Urbani [3]: 0.6
Binding of serum 6 to linear peptides of protein X5 of SARS-CoV Urbani [3]: 0.8
Binding of serum 6 to looped/cyclic peptides of protein X5 of SARS-CoV Urbani [3]: 0.4
Binding of serum 37 to linear peptides of protein X5 of SARS-CoV Urbani [3]: 0.7
Binding of serum 37 to looped/cyclic peptides of protein X5 of SARS-CoV Urbani [3]: 0.7
Binding of serum 62 to linear peptides of protein X5 of SARS-CoV Urbani [3]: 0.8
Binding of serum 62 to looped/cyclic peptides of protein X5 of SARS-CoV Urbani [3]: 0.7
Binding of serum London to linear peptides of protein X5 of SARS-CoV Urbani [3]: 0.7
Binding of serum London to looped/cyclic peptides of protein X5 of SARS-CoV Urbani [3]: 0.3
Binding of serum SARS-green to linear peptides of protein X5 of SARS-CoV Urbani [3]: 0.7
Binding of serum SARS-green to looped/cyclic peptides of protein X5 of SARS-CoV Urbani [3]: 0.7
Binding of serum SARS-yellow to linear peptides of protein X5 of SARS-CoV Urbani [3]: 0.3
Binding of serum SARS-yellow to looped/cyclic peptides of protein X5 of SARS-CoV Urbani [3]: 0.3

GIENATFFIFNKLVK
Binding of Control Serum Blood-Bank to Looped peptides [1]: 0.5
Binding of Control serum Blood-bank to linear peptides [1]: 0.6
Binding of Control serum LUMC to linear peptides [1]: 0.5
Binding of Control serum LUMC to looped peptides [1]: 0.5
Binding of a rabbit serum to linear peptides [2]: 0.1
Binding of a rabbit serum to looped peptides [2]: 0.6
Binding of serum 1a to linear peptides of protein X1 of SARS-CoV Urbani [3]: 0.6
Binding of serum 1a to looped/cyclic peptides of protein X1 of SARS-CoV Urbani [3]: 0.6
Binding of serum 1b to linear peptides of protein X1 of SARS-CoV Urbani [3]: 0.5
Binding of serum 1b to looped/cyclic peptides of protein X1 of SARS-CoV Urbani [3]: 0.4
Binding of serum 2 to linear peptides of protein X1 of SARS-CoV Urbani [3]: 0.5
Binding of serum 2 to looped/cyclic peptides of protein X1 of SARS-CoV Urbani [3]: 0.5
Binding of serum 6 to linear peptides of protein X1 of SARS-CoV Urbani [3]: 0.5
Binding of serum 6 to looped/cyclic peptides of protein X1 of SARS-CoV Urbani [3]: 0.5
Binding of serum 37 to linear peptides of protein X1 of SARS-CoV Urbani [3]: 0.6
Binding of serum 37 to looped/cyclic peptides of protein X1 of SARS-CoV Urbani [3]: 0.6
Binding of serum 62 to linear peptides of protein X1 of SARS-CoV Urbani [3]: 0.6
Binding of serum 62 to looped/cyclic peptides of protein X1 of SARS-CoV Urbani [3]: 0.6
Binding of serum London to linear peptides of protein X1 of SARS-CoV Urbani [3]: 0.3
Binding of serum London to looped/cyclic peptides of protein X1 of SARS-CoV Urbani [3]: 0.2
Binding of serum SARS-green to linear peptides of protein X1 of SARS-CoV Urbani [3]: 0.2
Binding of serum SARS-green to looped/cyclic peptides of protein X1 of SARS-CoV Urbani [3]: 0.2
Binding of serum SARS-yellow to linear peptides of protein X1 of SARS-CoV Urbani [3]: 0.5
Binding of serum SARS-yellow to looped/cyclic peptides of protein X1 of SARS-CoV Urbani [3]: 0.5

GLMWLSYFVASFRLF
Binding of Control Serum Blood-Bank to Looped peptides of the protein M of SARS-CoV Urbani [1]: 0.7
Binding of Control serum Blood-bank to linear peptides of the protein M of SARS-CoV Urbani [1]: 0.6
Binding of Control serum LUMC to linear peptides of the protein M of SARS-CoV Urbani [1]: 0.2
Binding of Control serum LUMC to looped peptides of the protein M of SARS-CoV Urbani [1]: 0.6
Rabbit serum linear peptides [2]: 0.2
Rabbit serum looped peptides [2]: 0.2
Binding of serum 1a to linear peptides of protein M of SARS-CoV Urbani [3]: 0.7
Binding of serum 1a to looped/cyclic peptides of protein M of SARS-CoV Urbani [3]: 0.6
Binding of serum 1b to linear peptides of protein M of SARS-CoV Urbani [3]: 0.4
Binding of serum 1b to looped/cyclic peptides of protein M of SARS-CoV Urbani [3]: 0.2
Binding of serum 2 to linear peptides of protein M of SARS-CoV Urbani [3]: 0.4
Binding of serum 2 to looped/cyclic peptides of protein M of SARS-CoV Urbani [3]: 0.6
Binding of serum 6 to linear peptides of protein M of SARS-CoV Urbani [3]: 0.6
Binding of serum 6 to looped/cyclic peptides of protein M of SARS-CoV Urbani [3]: 0.8
Binding of serum 37 to linear peptides of protein M of SARS-CoV Urbani [3]: 0.5
Binding of serum 37 to looped/cyclic peptides of protein M of SARS-CoV Urbani [3]: 0.5
Binding of serum 62 to linear peptides of protein M of SARS-CoV Urbani [3]: 0.6
Binding of serum 62 to looped/cyclic peptides of protein M of SARS-CoV Urbani [3]: 0.6
Binding of serum London to linear peptides of protein M of SARS-CoV Urbani [3]: 0.4
Binding of serum London to looped/cyclic peptides of protein M of SARS-CoV Urbani [3]: 0.3
Binding of serum SARS-green to linear peptides of protein M of SARS-CoV Urbani [3]: 0.3
Binding of serum SARS-green to looped/cyclic peptides of protein M of SARS-CoV Urbani [3]: 0.3
Binding of serum SARS-yellow to linear peptides of protein M of SARS-CoV Urbani [3]: 0.1
Binding of serum SARS-yellow to looped/cyclic peptides of protein M of SARS-CoV Urbani [3]: 0.7
